Source: patent publication US20140045758A1, “Methods for Treating and Preventing Cardiac Dysfunction in Septic Shock” (THE TRUSTEES OF COLUMBIA UNIVERSITY IN THE CITY OF NEW YORK, priority 2011, published 2014)
Several values for one entry are separate records, joined by “and”; a condition that tells them apart may be missing. Equal entries are not always repeated. Entries after “also recorded” stand apart in the source; their conditions may differ.

What was measured:
[1] = cited from earlier work; for hepatic damage: long term use
C57BL/6 mice [2] = experiment: LPS-mediated sepsis: cardiac function by 2D echocardiography (fractional shortening); assay type: in vivo
Experimental: (§1) LPS (5 mg/kg) (Sigma) was administered intraperitoneally (i.p.) in mice. Control mice were treated with equal volume of saline. Cardiac function was assessed by 2D echocardiography 5-6 hours post-LPS administration and mice were sacrificed 2-3 hours later (7-9 hours post-LPS injection).
(§2) Two-dimensional echocardiography was performed on conscious 10 to 12 week-old male and female (n=5-8 per group) mice (Sonos5500 system; Philips Medical Systems).^129Echocardiographic images were recorded in a digital format. Images were then analyzed off-line by a single observer blinded to the murine genotype.^130

C57BL/6 mice [3] = experiment: Assessment of survival after lethal dose of LPS; assay type: in vivo
Source text: Control animals received saline and DMSO instead of LPS and rosiglitazone, respectively.

patients = settings: human, in vivo, 3 mg/kg/day; cited from earlier work
[4] = system: hearts of αMHC-PPARγ mice; experiment: Western blot of pAMPK and pJNK in hearts of αMHC-PPARγ mice; assay type: in vivo
Experimental: as §1
(§3) Isolated heart tissues or cells were homogenized in PBS containing protease inhibitors and phosphatase inhibitors (Roche, Indianapolis, Ind.). Membrane and cytosolic fractions were separated by ultracentrifugation.20 μg from each fraction was applied to SDS-PAGE and transferred onto nitrocellulose membranes. Antibodies were obtained from Santa Cruz (JNK) and Cell Signaling (phospho-JNK, phospho-AMPK^Thr 172 and total AMPK).

[5] = system: hearts of αMHC-PPARγ mice; experiment: Cardiac ATP levels in αMHC-PPARγ mice; assay type: in vivo; settings: LPS-treated αMHC-PPARγ mice
Experimental: as §1
Cardiac pieces of 10 mg were used to determine ATP levels. Heart pieces were dissolved in ice-cold 0.1% trichloro-acetic acid and centrifuged. Supernatant was resuspended in 50 mM Tris-acetate containing 2 mM EDTA, pH 7.8 and a portion was used to measure ATP. The measurement was performed with the ATP determination kit (Invitrogen) according to the instructions of the manufacturer.

[6] = system: cardiac tissue from C57BL/6 mice; experiment: Electron microscopy of cardiac mitochondria; assay type: in vivo; settings: LPS vs saline
Source text: Left ventricles from 3-month-old mice were fixed with 2.5% glutaraldehyde in 0.1 M Sorensen's buffer (0.2 M monobasic phosphate/0.2 M dibasic phosphate, 1:4 vol/vol; pH 7.2), postfixed in osmium tetroxide, and embedded in EPON 812 (Electron Microscopy Sciences). Ultrathin sections were stained with uranyl acetate and lead citrate and examined under a JEM-1200ExII electron microscope (JEOL).

αMHC-PPARγ mice = experiment: LPS in αMHC-PPARγ mice: 2D echocardiography (fractional shortening); assay type: in vivo; settings: LPS-treated αMHC-PPARγ mice
Experimental: (§4) All procedures involving animals were approved by the Institutional Animal Care and Use Committee at Columbia University. Mice were maintained under appropriate barrier conditions in a 12 hr light-dark cycle and received food and water ad libitum. The animals that were used for this study were C57BL/6 mice and mice expressing specifically in cardiomyocytes peroxisome proliferator activating receptor-γ (αMHC-PPARγ) that are also on the C57BL/6 background. All studies were performed on the different genotypes with littermates as controls. Hearts from these mice were harvested, flash frozen and stored at −80° C. until further use. All analyses involving animals were performed with at least 5 mice per experimental group.
as §1, §2

[7] = system: hearts of αMHC-PPARγ mice; experiment: Cardiac mRNA levels in LPS-treated αMHC-PPARγ mice; assay type: in vivo
Experimental: as §4, §1
(§5) Total RNA was purified from cells or hearts using the TRIzol reagent according to the instructions of themanufacturer (Invitrogen). cDNA was synthesized using the SuperScript III First-Strand Synthesis SuperMix (Invitrogen). cDNA was analyzed with quantitative real-time PCR that was performed with SYBR Green PCRCore Reagents (Stratagene). Incorporation of the SYBRgreen dye into the PCR products was monitored in real time withan Mx3000 sequence detection system (Stratagene). Samples were normalized against β-actin.

hearts of C57BL/6 mice [8] = experiment: Cardiac mRNA levels by quantitative real-time PCR after LPS; assay type: in vivo; settings: LPS 5 mg/kg, 6-8 h
hearts of C57BL/6 mice [9] = experiment: Cardiac ATP measurement; assay type: in vivo; settings: LPS 5 mg/kg, 6-8 h
Experimental: as §1

hearts of C57BL/6 mice [10] = experiment: Western blot of pJNK, p-cJun and pAMPK in hearts; assay type: in vivo; settings: LPS 5 mg/kg; controls (label LPS) or animals given rosiglitazone 35 mg/kg (label rosiglitazone)
Experimental: as §1, §3

[11] = system: cardiac muscle of C57BL/6 mice; experiment: FA oxidation ([3H]palmitate oxidation) in heart pieces; assay type: in vivo; settings: LPS 5 mg/kg, 6-8 h
Experimental: as §1

AC16 cells = experiment: PPARα gene expression in LPS-treated human cardiomyocyte cell line; assay type: cell-based; settings: LPS treatment alone
Source text: A human ventricular cardiomyocyte-derived cell line, designated AC-16, was kindly provided by M. M. Davidson.^126 Cells were maintained in Dulbecco's Modified Eagle Medium: Nutrient Mixture F-12 (Ham) (DMEM:F12) (Invitrogen) supplemented with fetal bovine serum (10%) and a mixture of penicillin and streptomycin (1%). Prior to infection with recombinant adenoviruses the medium was changed to 2% heat inactivated horse serum and the cells were infected in at least duplicates with control adenovirus that expresses the Green Fluorescent Protein (Ad-GFP) or the adenovirus expressing the constitutively active form of JNK2 (Ad-JNK2α2) at a multiplicity of infection (MOI) of 10. […] To assess gene expression 48 hours post incubation, cell lysates were collected and analyzed for mRNA and protein expression.
Total RNA was purified from cells or hearts using the TRIzol reagent according to the instructions of themanufacturer (Invitrogen). cDNA was synthesized using the SuperScript III First-Strand Synthesis SuperMix (Invitrogen). cDNA was analyzed with quantitative real-time PCR that was performed with SYBR Green PCRCore Reagents (Stratagene). Incorporation of the SYBRgreen dye into the PCR products was monitored in real time withan Mx3000 sequence detection system (Stratagene). […]

hearts of C57BL/6 mice [12] = experiment: Cardiac mRNA levels by quantitative real-time PCR after LPS; assay type: in vivo
Experimental: as §1, §5

[13] = system: cardiac muscle of αMHC-PPARγ mice; experiment: [3H]palmitic acid oxidation in cardiac muscle of αMHC-PPARγ mice; assay type: in vivo; settings: LPS-treated vs saline-treated αMHC-PPARγ mice
Experimental: as §1
FA oxidation was measured in pieces of hearts isolated from 10-12 week old mice. The heart pieces were incubated at 37° C. for 2 h in modified Krebs-Ringerbuffer (MKR: 115 mM NaCl, 2.6 mM KCl, 1.2 mM KH2PO4, 10 mM NaHCO3,10 mM HEPES, pH 7.4) that contained 2% BSA, […] palmitate and 10 μCi/ml 9,10(n)-[^3H]-palmitate and was gassed with 95% O2 and 5% CO2. Water was then extracted with chloroform:methanol (2:1) extraction. Palmitate oxidation was determined by measuring the amount of ^3H2O in the aqueous phase.

[14] = system: cardiac RNA from LPS-treated mice; experiment: MiR array analysis of cardiac RNA; assay type: in vivo
Source text: The next experiment assessed whether the cardiac miR (microRNA) profiles of LPS-treated mice resemble the respective profiles in heart failure. (FIG. 5(A)-(C)).

C57BL6 mice = experiment: Plasma IL-6 protein levels after LPS; assay type: in vivo; settings: LPS 5 mg/kg, 6-8 h
Experimental: An animal model of cardiac septic shock was reproduced by treating 10 week old C57BL6 mice with LPS (5 mg/kg of body) for 6-8 h.

[15] = LPS 15 mg/kg, + DMSO (15 mice, F) or + rosiglitazone 33 mg/kg/day (17 mice, M)
[16] = Saline (no LPS) + rosiglitazone 33 mg/kg/day, 8 mice, M

Compound: CCc1ccc(CCOc2ccc(CC3SC(=O)NC3=O)cc2)nc1 (stereo not shown) [Pioglitazone, pioglitazone]
- deleterious effects on blood lipids ([1]; in vivo): fewer deleterious effects on blood lipids

Compound: Cc1cccc(Nc2cc(Cl)nc(SCC(=O)O)n2)c1C [WY-14643]
- improved fractional shortening by (C57BL/6 mice [2]; LPS 5 mg/kg + WY-14643 30 mg/kg, trend, p=0.09): 25%

Compound: CN(CCOc1ccc(CC2SC(=O)NC2=O)cc1)c1ccccn1 (stereo not shown) [rosiglitazone]
- Survivors 24 h (C57BL/6 mice [3]; [15]): 17
- Survivors 36 h (C57BL/6 mice [3]; [15]): 16
- Survivors 48 h (C57BL/6 mice [3]; [15]): 16
- Survivors 60 h (C57BL/6 mice [3]; [15]): 15
- Survivors 72 h (C57BL/6 mice [3]; [15]): 13
- Survivors 24 h (C57BL/6 mice [3]; [16]): 8
- Survivors 36 h (C57BL/6 mice [3]; [16]): 8
- Survivors 48 h (C57BL/6 mice [3]; [16]): 8
- Survivors 60 h (C57BL/6 mice [3]; [16]): 8
- Survivors 72 h (C57BL/6 mice [3]; [16]): 8
- hepatic damage [1]: cause hepatic damage with long term use

Compound: Cc1c(C)c2c(c(C)c1O)CCC(C)(COc1ccc(CC3SC(=O)NC3=O)cc1)O2 (stereo not shown) [troglitazone]
- hepatic damage [1]: cause hepatic damage with long term use

Compound: Oblimersen
- adverse effects in patients (patients): no severe adverse effects

Compound: lipopolysaccharide [LPS]
- JNK activation ([4]; LPS 5 mg/kg, αMHC-PPARγ mice): activated JNK
- phosphorylated AMPK levels ([4]; LPS-treated αMHC-PPARγ mice): reduced
- cardiac ATP content [5]: significantly increased
- cardiac ATP levels, increase [5]: 2.2 fold
- morphology and intracellular arrangement of mitochondria [6]: did not affect
- fractional shortening / cardiac function (αMHC-PPARγ mice): remained normal; also recorded: preserved
- UCP2 mRNA increase ([7]; LPS): 23.7 fold
- UCP3 mRNA increase ([7]; LPS): 17.4 fold
- PDK4 mRNA increase ([7]; LPS 5 mg/kg): 5.4 fold
- cardiac CD36 gene expression, reduced by ([7]; LPS 5 mg/kg): 93%
- cardiac IL-1α mRNA increase ([7]; LPS 5 mg/kg): 23.1 fold and 23 fold
- cardiac IL-6 mRNA increase ([7]; LPS 5 mg/kg): 288 fold and 285 fold
- cardiac PGC-1β gene expression, reduced by ([7]; LPS 5 mg/kg): 76%
- cardiac TNFα mRNA increase ([7]; LPS 5 mg/kg): 12.5 fold
- estrogen-related receptor (ERR)α mRNA ([7]; LPS 5 mg/kg): not modulated
- perilipin 2 mRNA ([7]; LPS 5 mg/kg): not modulated
- perilipin 5 mRNA, reduced by ([7]; LPS 5 mg/kg): 50%
- AOX mRNA increase ([7]; LPS 5 mg/kg vs saline): 27.1 fold
- Cpt1β mRNA increase ([7]; LPS 5 mg/kg vs saline): 14.3 fold
- PGC-1α mRNA increase ([7]; LPS 5 mg/kg vs saline): 30.1 fold
- PPARγ mRNA increase ([7]; LPS 5 mg/kg vs saline): 31.6 fold
- PPARδ mRNA increase ([7]; LPS 5 mg/kg vs saline): 31.6 fold
- cardiac PPARα mRNA reduction ([7]; LPS 5 mg/kg vs saline): 77% and 78%
- Survivors 24 h (C57BL/6 mice [3]; [15]): 14
- Survivors 36 h (C57BL/6 mice [3]; [15]): 14
- Survivors 48 h (C57BL/6 mice [3]; [15]): 10
- Survivors 60 h (C57BL/6 mice [3]; [15]): 5
- Survivors 72 h (C57BL/6 mice [3]; [15]): 2
- start of dying post-injection (C57BL/6 mice [3]; LPS alone 15 mg/kg i.p.): 36 h
- cardiac gene expression of inflammation-associated genes (IL-1α, IL-6 and TNFα) (hearts of C57BL/6 mice [8]): increased
- mRNA levels for cardiac PPARα, CD36, LpL, FATP, Cpt1β, PGC-1α and PGC-1β (hearts of C57BL/6 mice [8]): reduced
- cardiac ATP, reduced by (hearts of C57BL/6 mice [9]): 44%
- phospho-AMPK in heart after LPS (hearts of C57BL/6 mice [10]): not stimulated; also recorded: reduced phospho-AMPK
- phosphorylation/activation of JNK (and c-Jun) in heart after LPS (hearts of C57BL/6 mice [10]): induced phosphorylation of JNK; also recorded: activated
- FAO, reduced by [11]: 61%
- PPARα expression in human cardiomyocyte cell line (AC16 cells): reduces PPARα expression
- PDK4 mRNA increase (hearts of C57BL/6 mice [12]; LPS 5 mg/kg alone): 16 fold
- cardiac AOX mRNA, increased by (hearts of C57BL/6 mice [12]; LPS 5 mg/kg alone): 42%
- cardiac PPARα mRNA levels, reduced by (hearts of C57BL/6 mice [12]; LPS 5 mg/kg alone): 78%
- cardiac perilipin 2 mRNA, increased by (hearts of C57BL/6 mice [12]; LPS 5 mg/kg alone): 3.3
- cardiac IL-1α mRNA increase (hearts of C57BL/6 mice [12]; LPS 5 mg/kg alone, qRT-PCR): 90 fold
- cardiac IL-6 mRNA increase (hearts of C57BL/6 mice [12]; LPS 5 mg/kg alone, qRT-PCR): 1250 fold
- cardiac TNFα mRNA increase (hearts of C57BL/6 mice [12]; LPS 5 mg/kg alone, qRT-PCR): 26 fold
- cardiac PPARγ (mRNA) levels, increased by (hearts of C57BL/6 mice [12]; LPS alone, normal C57BL/6 mice): ~60% and 57%
- gene expression levels of αMHC and βMHC (hearts of C57BL/6 mice [12]; LPS, hearts of C57BL/6 mice): reduces both αMHC and βMHC
- switch from α-MHC isoform to β-MHC (cardiac mRNA) (hearts of C57BL/6 mice [12]; LPS-treated mice): did not indicate such change
- cardiac PPARδ mRNA (hearts of C57BL/6 mice [12]; any of the treatment groups (rosiglitazone 35 mg/kg, LPS 5 mg/kg, both)): not modulated
- reduction in fractional shortening (C57BL/6 mice [2]; LPS 5 mg/kg alone vs saline, 2D-echocardiography): 50%
- fractional shortening, effect of LPS (C57BL/6 mice [2]; LPS 5 mg/kg of body, 6-8 h, 10 week old mice): reduced fractional shortening
- levels of FAO, increase [13]: 2.6 fold
- miRs associated with heart failure (miR-1, -133, -208, -195, -24, -125b, -199a, 214) affected [14]: none
- plasma IL-6 protein levels (C57BL6 mice): increased
